# In patent US8653052B2, “Drug combination and its use in the treatment of muscle loss” (Acacia Pharma Limited, priority 2007, dated 2014):
# Where a name gives a salt, the structure may show the parent alone.
# Key:
# [1] = test system: tumour bearing rats (AH-130 Yoshida ascites hepatoma); test: Yoshida AH-130 rat ascites hepatoma cachexia model, initial experiment: total food intake; format: in vivo; settings: at day 3, racemic formoterol 10 μg/kg/day, alone or with megestrol acetate 100 mg/kg/day
# Description: This study involves the use of the Yoshida AH-130 rat ascites hepatoma model, which is a particularly suitable model system for studying the mechanisms involved in the establishment of cachexia. Its growth in the host causes rapid and progressive loss of bodyweight and tissue wasting, particularly in skeletal muscle. […] Co-administration of each of these β2 agonists with the progestin, megestrol acetate, is also investigated.
# Wistar rats weighing about 100 g are used (Busquets et al 2004, Cancer Res 64:6725-6731). The animals are maintained on a regular light-dark cycle (light from 08.00 am to 8.00 pm) with free access to food and water. Their diet consists of 54% carbohydrate, 17% protein and 5% fat, and the food intake is measured daily. Rats are given an intraperitoneal inoculum of 10^8 AH-130 Yoshida ascites hepatoma cells obtained from exponential tumours.
# The animals were divided into groups: those receiving the test drugs and those receiving vehicle. Drug administration is by subcutaneous injection. Seven days after tumour transplantation, the animals are weighed and anaesthetised with a ketamine/xylacine mixture. The tumour is harvested from the peritoneal cavity, and its volume and cellularity evaluated. […]
# In an initial experiment, the tumour bearing rats were divided into three groups. […] The rats were monitored over a 3 day period.
# [2] = as reported in U.S. Pat. No. 5,449,694; cited from earlier work
# [3] = test system: cancer patients; settings: cited from earlier work; for Effect on appetite, calorie intake and nutritional status: several clinical trials
smiles,measurement,setting,value
"COc1ccc(CC(C)NCC(O)c2ccc(O)c(NC=O)c2)cc1 (racemic) [racemic formoterol, (±)-N-[2-Hydroxy-5-[1(R*)-hydroxy-2-[1(R*)-methyl-2-(4-methoxyphenyl)ethylamino]ethyl]phenyl]formamide fumarate (2:1) monohydrate]",Total food intake,[1],45±2 g/100 g rat
"C[C@@H](NCCc1ccc(O)cc1)[C@@H](O)c1ccc(O)cc1.Cl (single isomer, unassigned) [(−)-ritodrine]",Relative potency of enantiomers,[2],more potent enantiomer
CC(=O)O[C@]1(C(C)=O)CC[C@H]2[C@@H]3C[C@H](C)C4=CC(=O)CC[C@]4(C)[C@H]3CC[C@@]21C [medroxy-progesterone acetate],"Effect on appetite, calorie intake and nutritional status",[3],"improve appetite, calorie intake and nutritional status"
CC(=O)O[C@]1(C(C)=O)CC[C@H]2[C@@H]3C=C(C)C4=CC(=O)CC[C@]4(C)[C@H]3CC[C@@]21C [megestrol acetate],Cancer patients treated with a weight gain of greater than 5%,"[3]; cancer patients, significant component of the gain due to fat",15%
same,"Effect on appetite, calorie intake and nutritional status",[3],"improve appetite, calorie intake and nutritional status"
